Assay results reported in patent publication US11524955B2, “2,4-diamino-pyrimidine compounds and method for making and using the compounds” (Rigel Pharmaceuticals, Inc., priority 2016, dated 2022).
Read-outs that look alike come from different tables or passages of the source.

What was measured:
[1] = test system: IL-23, dendritic cells; test: IL-23 assay, human primary monocyte-derived dendritic cells, LPS stimulated, ELISA; type: cell-based; settings: Dendritic cell
Procedure: (§1) IL-23 assays: THP1 cells or human primary monocyte-derived dendritic cells (DC) were primed overnight with IFNg. Following one hour preincubation with compound, cells were stimulated overnight with LPS. IL-23 released into the media was quantitated by ELISA.

[2] = test system: IL-6, HUVEC; test: IL-6 assay, HUVEC, ELISA; type: cell-based, human; settings: Homo sapiens
[3] = target: T1, IRAK4 (Homo sapiens, UniProt Q9NWZ3); test: IRAK4 biochemical assay, ADP-Glo kinase assay
T1 sequence (Q9NWZ3 1-460): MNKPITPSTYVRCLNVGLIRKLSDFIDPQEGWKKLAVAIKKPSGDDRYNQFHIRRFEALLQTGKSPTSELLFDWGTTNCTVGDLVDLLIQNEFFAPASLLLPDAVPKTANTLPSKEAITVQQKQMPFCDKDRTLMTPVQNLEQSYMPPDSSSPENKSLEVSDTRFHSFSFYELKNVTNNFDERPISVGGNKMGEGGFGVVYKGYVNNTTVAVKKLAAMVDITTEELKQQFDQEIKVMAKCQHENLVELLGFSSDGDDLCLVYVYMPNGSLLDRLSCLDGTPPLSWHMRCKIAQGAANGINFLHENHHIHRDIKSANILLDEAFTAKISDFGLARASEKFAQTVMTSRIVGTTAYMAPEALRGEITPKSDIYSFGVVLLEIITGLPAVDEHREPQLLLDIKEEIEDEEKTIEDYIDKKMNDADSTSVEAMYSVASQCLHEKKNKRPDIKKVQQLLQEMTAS
Procedure: (§2) IRAK4 and TAK1 biochemical assays: kinase activity was measured by ADP-Glo kinase assay (Promega).

[4] = test system: IL-23, THP1 cells; test: IL-23 assay, THP1 cells primed with IFNg, LPS stimulated, ELISA; type: cell-based; settings: Homo sapiens, THP-1
Procedure: as §1

[5] = target: T2, TAK1 (Homo sapiens, UniProt O43318); test: TAK1 biochemical assay, ADP-Glo kinase assay
T2 sequence (O43318 1-303 limits assumed): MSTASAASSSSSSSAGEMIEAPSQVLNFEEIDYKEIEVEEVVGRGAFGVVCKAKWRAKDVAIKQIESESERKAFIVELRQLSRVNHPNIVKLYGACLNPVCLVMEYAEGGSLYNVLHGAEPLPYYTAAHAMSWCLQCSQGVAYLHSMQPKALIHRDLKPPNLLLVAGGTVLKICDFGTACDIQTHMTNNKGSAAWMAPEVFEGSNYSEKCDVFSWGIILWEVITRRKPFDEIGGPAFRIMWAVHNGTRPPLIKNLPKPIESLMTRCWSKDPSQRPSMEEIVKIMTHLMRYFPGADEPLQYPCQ
Procedure: as §2

[6] = test system: IL-8, HUVEC; test: IL-8 assay, HUVEC, ELISA; type: cell-based, human; settings: Homo sapiens

IC50 ([1]; LPS stimulated, 10 pt, read-out: IL23-P19, ELISA, Dendritic, LPS, 10 pt): < 250 nM
IC50 ([1]; LPS, read-out: IL23 (Dentritic Cells, LPS) IC50): 110 nM
IC50 [3]: 3 nM
IC50 ([4]; THP1 cells, IFNy primed, LPS stimulated, 10 pt, read-out: IL23-p19 ELISA, THP1-IFNy, LPS, 10 pt): < 100 nM
IC50 ([4]; THP cells, LPS, read-out: IL23 (THP, LPS) IC50): 100 nM
IC50 ([4]; read-out: IL23 (LPS induced) IC50): 100 nM
IC50 [5]: 17 nM
SMILES: NC(=O)[C@@H]1[C@H](Nc2nc(Nc3cccc(C(=O)N4CCCC4)c3)ncc2-c2ccnc(F)c2)[C@H]2C=C[C@@H]1C2 [Compound 16, (1S,2S,3R,4R)-3-((5-(2-fluoropyridin-4-yl)-2-((3-(pyrrolidine-1-carbonyl)phenyl)amino)pyrimidin-4-yl)amino)bicyclo[2.2.1] hept-5-ene-2-carboxamide]
IC50 ([2]; read-out: IL6 (HUVEC, IL-1β) IC50): 110 nM
IC50 ([2]; read-out: IL6 (HUVEC, LPS) IC50): 120 nM
IC50 ([2]; read-out: IL6 (HUVEC, TNFα) IC50): 1200 nM
IC50 ([6]; read-out: IL8 (HUVEC, IL-1β) IC50): 250 nM
IC50 ([6]; read-out: IL8 (HUVEC, LPS) IC50): 1000 nM
IC50 ([6]; read-out: IL8 (HUVEC, TNFα) IC50): 3000 nM
